{
  "source": "PubChem BioAssay AID2060496",
  "about": "(Molecular Pharmacology Branch, DTP, NCI, 2025);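 note: spheroids exposed to drugs for seven days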;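 for viability, T/C: 100% = DMSO vehicle control viability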",
  "test_system": "276233-004-R-J1-PDC complex spheroid viability",
  "assay": "Anticancer human tumor 276233-004-R-J1-PDC patient-derived colon adenocarcinoma cell line growth inhibition [GQUAD]",
  "conditions": "for IC50: curve of first compound; for viability, T/C: stronger effect = lower value",
  "text": "DNA G-quadruplex Stabilizer Agents in Combinations in Complex Spheroids\nA high-throughput screen of multi-cell type tumor spheroids was designed to identify active combinations of DNA G-quadruplex stabilizer agents and targeted small molecules. Complex spheroids include a stromal component modeled by human endothelial cells (HUVEC) and fibroblasts modeled by human mesenchymal stem cells (MSCs). The concentration ranges selected for each drug and investigational agent were based upon clinically achievable concentrations if the clinical Cmax of the agent was known.\nCompounds. The drugs and investigational agents: pidnarulex (CX-5461; NSC782164), APTO-253 (NSC789042), BRACO-19 (NSC847499), peposertib (NSC802822), ceralasertib (NSC780249), elimusertib (NSC800525), camonsertib (NSC841442), AZD-1390 (NSC803789), olaparib (NSC753686), talazoparib (NSC767125), ART-558 (NSC835418), sotorasib (NSC818433), MRTX-1133 (NSC836407), SN-38 (NSC673596), topotecan (NSC609699), etoposide (NSC141540), doxorubicin (NSC123127), gemcitabine (NSC613327), 5-fluorouracil (NSC19893), paclitaxel (NSC125973), vemurafenib (NSC761431), panobinostat (NSC761190), R-306465 (JNJ-16241199; NSC773264), adavosertib (NSC754352), TP-3654 (NSC805149), carboplatin (NSC241240), KSQ-4279 (NSC840948), and staurosporine (NSC755774) were obtained from the National Cancer Institute (NCI) Developmental Therapeutics Program Chemical Repository (34). The FDA-approved anticancer drug set is available from the NCI Developmental Therapeutics Program. […] The stock solutions were prepared in dimethyl sulfoxide (DMSO, Sigma-Aldrich, St. Louis, MO, cat. D2650) at 800-fold the tested concentration and stored at -70 degrees C prior to their use. All drugs and investigational agents were tested over a range starting from a high concentration at or near the clinical Cmax and decreasing in half-log increments. If the clinical Cmax for an agent had not been determined, the highest concentration tested was 10 microM.\n2.3 Cell Culture. All cells were maintained in an incubator at 37 degrees C and 5% CO2 with 95% humidity. The PDC lines were cultured according to standard operating procedures established by the NCI PDMR. All PDCs were thawed and cultured in Matrigel-coated flasks prepared with a working solution of 1X Ham's F-12 nutrient mix, without supplementation (Invitrogen, cat. 11765054), 100 U/mL penicillin-streptomycin (Invitrogen, cat. 15140122), and 2.5% Matrigel (Corning Inc., cat. 354248) for the first three passages. The 857933-349-R-J2-PDC line was cultured in 6C/Colon 1B media, which includes advanced DMEM/F-12 (Thermo Fisher Scientific, cat. 12634028), 10 mM HEPES (Thermo Fisher Scientific, cat. 15630080), 1X GlutaMAX supplement (Thermo Fisher Scientific, cat. 35050061), 0.1 mg/mL primocin (InvivoGen, cat. ant-pm-2), 10% defined fetal bovine serum, heat inactivated (HyClone Laboratories Inc., cat. SH30070.03HI), 50% L-WRN conditioned media (ATCC, cat. CRL-3276), 1.25 mM N-Acetyl-L-cysteine (Sigma-Aldrich, cat. A9165), 10 mM nicotinamide (Sigma-Aldrich, cat. N0636), 1X B-27 supplement (Thermo Fisher Scientific, cat. 17504044), 1X N-2 supplement (Thermo Fisher Scientific, cat. 17502048), 10 microM Y-27632 dihydrochloride (Tocris Bioscience, cat. 1254), and 50 ng/mL human EGF recombinant protein (Thermo Fisher Scientific, cat. PHG0311). The 485176-168-R4-J1-PDC line was cultured in Panc media, which includes all 6C/Colon 1B media components plus 100 ng/mL human FGF-10 (Thermo Fisher Scientific, cat. 100-26), 500 nM SB-431542 (Selleckchem, cat. S1067), and gastrin (Tocris, cat. 3006).\n[…]",
  "data": [
    {"smiles": "C#Cc1c(F)ccc2cc(O)cc(-c3ncc4c(N5CC6CCC(C5)N6)nc(OCC56CCCN5CC(F)C6)nc4c3F)c12", "note": "(configuration not stated) + CN(C)c1ccc(Nc2c3ccc(NC(=O)CCN4CCCC4)cc3nc3cc(NC(=O)CCN4CCCC4)ccc23)cc1", "values": [
      {"measurement": "IC50", "setting": "second compound 0.0316 µM", "result": 3310, "unit": "nM"},
      {"measurement": "IC50", "setting": "second compound 0.1 µM", "result": 3140, "unit": "nM"},
      {"measurement": "IC50", "setting": "second compound 0.316 µM", "result": 1300, "unit": "nM"},
      {"measurement": "IC50", "setting": "second compound 1 µM", "result": 368, "unit": "nM"},
      {"measurement": "IC50", "setting": "second compound 3.16 µM", "result": "< 31.6", "unit": "nM"},
      {"measurement": "IC50", "setting": "second compound 10 µM", "result": "< 31.6", "unit": "nM"},
      {"measurement": "viability, T/C", "setting": "second compound 0.0316 µM, first compound 0.0316 µM", "result": 90.1, "unit": "%"},
      {"measurement": "viability, T/C", "setting": "second compound 0.0316 µM, first compound 0.1 µM", "result": 79, "unit": "%"},
      {"measurement": "viability, T/C", "setting": "second compound 0.0316 µM, first compound 0.316 µM", "result": 101, "unit": "%"},
      {"measurement": "viability, T/C", "setting": "second compound 0.0316 µM, first compound 1 µM", "result": 75.6, "unit": "%"},
      {"measurement": "viability, T/C", "setting": "second compound 0.0316 µM, first compound 3.16 µM", "result": 52, "unit": "%"},
      {"measurement": "viability, T/C", "setting": "second compound 0.0316 µM, first compound 10 µM", "result": 36.9, "unit": "%"},
      {"measurement": "viability, T/C", "setting": "second compound 0.1 µM, first compound 0.0316 µM", "result": 78.7, "unit": "%"},
      {"measurement": "viability, T/C", "setting": "second compound 0.1 µM, first compound 0.1 µM", "result": 74.2, "unit": "%"},
      {"measurement": "viability, T/C", "setting": "second compound 0.1 µM, first compound 0.316 µM", "result": 56.4, "unit": "%"},
      {"measurement": "viability, T/C", "setting": "second compound 0.1 µM, first compound 1 µM", "result": 56.8, "unit": "%"},
      {"measurement": "viability, T/C", "setting": "second compound 0.1 µM, first compound 3.16 µM", "result": 54.8, "unit": "%"},
      {"measurement": "viability, T/C", "setting": "second compound 0.1 µM, first compound 10 µM", "result": 42.2, "unit": "%"},
      {"measurement": "viability, T/C", "setting": "second compound 0.316 µM, first compound 0.0316 µM", "result": 54.7, "unit": "%"},
      {"measurement": "viability, T/C", "setting": "second compound 0.316 µM, first compound 0.1 µM", "result": 47.2, "unit": "%"},
      {"measurement": "viability, T/C", "setting": "second compound 0.316 µM, first compound 0.316 µM", "result": 57.1, "unit": "%"},
      {"measurement": "viability, T/C", "setting": "second compound 0.316 µM, first compound 1 µM", "result": 54.2, "unit": "%"},
      {"measurement": "viability, T/C", "setting": "second compound 0.316 µM, first compound 3.16 µM", "result": 39, "unit": "%"},
      {"measurement": "viability, T/C", "setting": "second compound 0.316 µM, first compound 10 µM", "result": 30.1, "unit": "%"},
      {"measurement": "viability, T/C", "setting": "second compound 1 µM, first compound 0.0316 µM", "result": 65, "unit": "%"},
      {"measurement": "viability, T/C", "setting": "second compound 1 µM, first compound 0.1 µM", "result": 54.8, "unit": "%"},
      {"measurement": "viability, T/C", "setting": "second compound 1 µM, first compound 0.316 µM", "result": 54.9, "unit": "%"},
      {"measurement": "viability, T/C", "setting": "second compound 1 µM, first compound 1 µM", "result": 40.4, "unit": "%"},
      {"measurement": "viability, T/C", "setting": "second compound 1 µM, first compound 3.16 µM", "result": 49.1, "unit": "%"},
      {"measurement": "viability, T/C", "setting": "second compound 1 µM, first compound 10 µM", "result": 42, "unit": "%"},
      {"measurement": "viability, T/C", "setting": "second compound 3.16 µM, first compound 0.0316 µM", "result": 51.2, "unit": "%"},
      {"measurement": "viability, T/C", "setting": "second compound 3.16 µM, first compound 0.1 µM", "result": 40, "unit": "%"},
      {"measurement": "viability, T/C", "setting": "second compound 3.16 µM, first compound 0.316 µM", "result": 36.5, "unit": "%"},
      {"measurement": "viability, T/C", "setting": "second compound 3.16 µM, first compound 1 µM", "result": 39.2, "unit": "%"},
      {"measurement": "viability, T/C", "setting": "second compound 3.16 µM, first compound 3.16 µM", "result": 39.1, "unit": "%"},
      {"measurement": "viability, T/C", "setting": "second compound 3.16 µM, first compound 10 µM", "result": 35.1, "unit": "%"},
      {"measurement": "viability, T/C", "setting": "second compound 10 µM, first compound 0.0316 µM", "result": 43.6, "unit": "%"},
      {"measurement": "viability, T/C", "setting": "second compound 10 µM, first compound 0.1 µM", "result": 43.7, "unit": "%"},
      {"measurement": "viability, T/C", "setting": "second compound 10 µM, first compound 0.316 µM", "result": 40.2, "unit": "%"},
      {"measurement": "viability, T/C", "setting": "second compound 10 µM, first compound 1 µM", "result": 40.7, "unit": "%"},
      {"measurement": "viability, T/C", "setting": "second compound 10 µM, first compound 3.16 µM", "result": 36.6, "unit": "%"},
      {"measurement": "viability, T/C", "setting": "second compound 10 µM, first compound 10 µM", "result": 27.4, "unit": "%"}
    ]}
  ]
}
